Where two headings read alike, the source gives them in different places.
Experiments:
[1] = target: T1, rabbit mGPa (Oryctolagus cuniculus, UniProt P00489); experiment: In vitro effect of glucose on inhibitor potency (GPa inhibition with 0, 5, 10 mM glucose); type: biochemical; settings: mean ± SEM, read-out: GPa IC50 value
T1 construct: purchased Creative Enzymes
T1 sequence (P00489 2-843 limits assumed): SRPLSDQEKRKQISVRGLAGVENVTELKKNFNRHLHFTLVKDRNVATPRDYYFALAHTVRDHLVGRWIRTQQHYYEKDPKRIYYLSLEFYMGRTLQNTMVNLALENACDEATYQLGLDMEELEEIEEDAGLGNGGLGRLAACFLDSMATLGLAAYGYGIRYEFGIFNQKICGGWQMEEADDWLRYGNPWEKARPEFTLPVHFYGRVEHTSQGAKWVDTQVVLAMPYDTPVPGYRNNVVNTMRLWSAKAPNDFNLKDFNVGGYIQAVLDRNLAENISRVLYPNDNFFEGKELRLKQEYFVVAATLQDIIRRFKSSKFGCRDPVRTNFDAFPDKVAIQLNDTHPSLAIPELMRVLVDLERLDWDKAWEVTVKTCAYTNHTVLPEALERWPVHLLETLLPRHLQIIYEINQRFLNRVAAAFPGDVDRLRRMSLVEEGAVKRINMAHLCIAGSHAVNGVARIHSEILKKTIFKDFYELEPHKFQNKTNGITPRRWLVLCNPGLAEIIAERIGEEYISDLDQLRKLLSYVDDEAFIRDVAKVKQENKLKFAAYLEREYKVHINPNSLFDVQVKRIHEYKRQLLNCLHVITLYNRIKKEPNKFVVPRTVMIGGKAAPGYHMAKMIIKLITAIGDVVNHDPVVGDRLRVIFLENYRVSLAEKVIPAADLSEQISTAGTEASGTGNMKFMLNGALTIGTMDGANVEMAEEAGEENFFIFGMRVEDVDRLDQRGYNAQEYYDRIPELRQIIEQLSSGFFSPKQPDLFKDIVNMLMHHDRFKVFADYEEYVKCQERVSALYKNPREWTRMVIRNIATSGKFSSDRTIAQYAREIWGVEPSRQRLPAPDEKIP
Procedure: The method was performed as described in Section 2.2, with slight modifications. […] The enzymatic reaction was then started with the addition of a 50 mM HEPES buffer solution with a pH of 7.2 containing 100 mM KCl, 2.5 mM MgCl2, 0.25 mM glucose 1-phosphate, and 0.25 mg/mL glycogen. This buffer was used without glucose, or it was enriched with 5 and 10 mM of glucose and was incubated for 30 min at 37 °C in the reaction mixture. After this incubation time, BIOMOL® Green was added, and the reaction was monitored in a microplate reader (Synergy HT, BioTek Instruments, Winooski, VT, USA) at 620 nm.

[2] = target: T1, rabbit mGPa; set-up: method as in PMID 16317787; settings: direction of glycogen breakdown; cited from earlier work
[3] = tested on: GP; set-up: method as in PMID 18494482; settings: cited from earlier work
[4] = tested on: GPb; set-up: method as in PMID 16317787; settings: direction of glycogen breakdown; cited from earlier work
[5] = tested on: rabbit mGPa and mGPb, together with human lGPa; set-up: method as in PMID 32771768; settings: direction of glycogen synthesis; cited from earlier work
[6] = target: T1, rabbit mGPa; experiment: In vitro glycogen phosphorylase inhibition assay (direction of glycogen synthesis, colorimetric phosphate); type: biochemical; settings: no glucose; mean ± SEM; read-out: GPa IC50 value
Procedure: The GP activity was measured using a previously optimized and validated method. In each assay, GP activity was measured by the direction of glycogen synthesis, which involved monitoring the colorimetric determination of inorganic phosphate deriving from glucose 1-phosphate. […] The enzymatic reaction was then started with the addition of a 50 mM HEPES buffer solution, with a pH of 7.2, containing 100 mM KCl, 2.5 mM MgCl2, 0.25 mM glucose 1-phosphate, and 0.25 mg/mL glycogen incubated for 30 min at 37 °C. After this incubation time, the reagent for colorimetric phosphate quantitation, BIOMOL® Green, was added to the reaction mixture. The reaction was monitored in a microplate reader (Synergy HT, BioTek Instruments, Winooski, VT, USA) at 620 nm.

Q: With `O=c1cc(-c2ccccc2)oc2cc(O)cc(O)c12` [Compound 38, Chrysin] as the molecule, how does the IC50 ([1]; 0 mM of glucose) read?
A: 19.3 ± 1.5 µM

Q: What about the IC50 ([1]; 5 mM of glucose) of the same molecule?
A: 8.8 ± 0.8 µM

Q: And the IC50 ([1]; 10 mM of glucose)?
A: 5.2 ± 0.3 µM

Q: And the IC50 [2]?
A: 27.5 µM

Q: And the IC50 [3]?
A: > 200 µM

Q: What about the IC50 [4] of the same molecule?
A: 15.3 ± 1 µM

Q: And the “potency relative to flavonoid 45, quercetin” value [5]?
A: ~10 fold

Q: And the IC50 [6]?
A: 19.3 ± 1.5 µM
